Test results as given in patent US8802597B2, “Herbicidal pyrimidines” (E I du Pont de Nemours and Company, priority 2003, dated 2014).

Legend:
Assay in all cases: Test C postemergence
Format in all cases: in vivo
[1] = system: green foxtail (Setaria viridis); conditions: for Plant response rating (scale of 0 to 100), Foxtail, Green: 31 g ai/ha; for Plant response rating, Foxtail, Green: 250 g ai/ha, scale 0 to 100; for pest or weed control at 62 g/ha / pest or weed control at 125 g/ha: Setaria viridis, post-emergence, scale 0 to 100 (0 no effect, 100 complete control), read-out: Foxtail, Green plant response rating; for pest or weed control at 62 g/ha: 62 g ai/ha; for pest or weed control at 125 g/ha: 125 g ai/ha
Procedure, shortened: (§1)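 Test compounds, formulated in a non-phytotoxic solvent mix with surfactant, were applied to freshly planted seeds and, at the same time, to emerged plants at 1- to 4-leaf stage (2 to 18 cm). After 12 to 14 days in the greenhouse, response was scored visually versus controls, 0 = no effect, 100 = complete control.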

[2] = system: canarygrass (Phalaris minor); conditions: for Plant response rating (scale of 0 to 100), Canarygrass: 31 g ai/ha; for Plant response rating, Canarygrass: scale 0 to 100; for pest or weed control at 62 g/ha: Phalaris minor, post-emergence, 62 g ai/ha, scale 0 to 100 (0 no effect, 100 complete control), read-out: Canarygrass plant response rating
Procedure, shortened: as §1

[3] = system: windgrass (Apera spica-venti); conditions: for Plant response rating (scale of 0 to 100), Windgrass: 31 g ai/ha; for Plant response rating, Windgrass: 250 g ai/ha, scale 0 to 100; for pest or weed control at 62 g/ha / pest or weed control at 125 g/ha: Apera spica-venti, post-emergence, scale 0 to 100 (0 no effect, 100 complete control), read-out: Windgrass plant response rating; for pest or weed control at 62 g/ha: 62 g ai/ha; for pest or weed control at 125 g/ha: 125 g ai/ha
Procedure, shortened: as §1

[4] = system: blackgrass (Alopecurus myosuroides); conditions: for Plant response rating (scale of 0 to 100), Blackgrass: 31 g ai/ha; for Plant response rating, Blackgrass: scale 0 to 100; for pest or weed control at 62 g/ha: Alopecurus myosuroides, post-emergence, 62 g ai/ha, scale 0 to 100 (0 no effect, 100 complete control), read-out: Blackgrass plant response rating
Procedure, shortened: as §1

wild oat (Avena fatua) = conditions: for Plant response rating (scale of 0 to 100), Oat, Wild: 31 g ai/ha; for Plant response rating, Oat, Wild: 250 g ai/ha, scale 0 to 100; for pest or weed control at 62 g/ha / pest or weed control at 125 g/ha: Avena fatua, post-emergence, scale 0 to 100 (0 no effect, 100 complete control), read-out: Oat, Wild plant response rating; for pest or weed control at 62 g/ha: 62 g ai/ha; for pest or weed control at 125 g/ha: 125 g ai/ha
Procedure, shortened: as §1

[5] = system: Italian ryegrass (Lolium multiflorum); conditions: for Plant response rating (scale of 0 to 100), Ryegrass, Italian: 31 g ai/ha; for Plant response rating, Ryegrass, Italian: 250 g ai/ha, scale 0 to 100; for pest or weed control at 62 g/ha / pest or weed control at 125 g/ha: Lolium multiflorum, post-emergence, scale 0 to 100 (0 no effect, 100 complete control), read-out: Ryegrass, Italian plant response rating; for pest or weed control at 62 g/ha: 62 g ai/ha; for pest or weed control at 125 g/ha: 125 g ai/ha
Procedure, shortened: as §1

[6] = system: wheat (Triticum aestivum); conditions: for Plant response rating (scale of 0 to 100), Wheat: 31 g ai/ha; for Plant response rating, Wheat: 250 g ai/ha, scale 0 to 100; for plant injury at 62 g/ha / plant injury at 125 g/ha: Triticum aestivum, post-emergence, scale 0 to 100 (0 no effect, 100 complete control), read-out: Wheat plant response rating; for plant injury at 62 g/ha: 62 g ai/ha; for plant injury at 125 g/ha: 125 g ai/ha
Procedure, shortened: as §1

[7] = system: winter barley (Hordeum vulgare); conditions: for Plant response rating (scale of 0 to 100), Barley: 31 g ai/ha; for Plant response rating, Barley: scale 0 to 100; for plant injury at 62 g/ha: Hordeum vulgare, post-emergence, 62 g ai/ha, scale 0 to 100 (0 no effect, 100 complete control), read-out: Barley plant response rating
Procedure, shortened: as §1

[8] = system: downy brome (Bromus tectorum); conditions: for Plant response rating (scale of 0 to 100), Bromegrass, Downy: 31 g ai/ha; for Plant response rating, Bromegrass, Downy: scale 0 to 100; for pest or weed control at 62 g/ha: Bromus tectorum, post-emergence, 62 g ai/ha, scale 0 to 100 (0 no effect, 100 complete control), read-out: Bromegrass, Downy plant response rating
Procedure, shortened: as §1

| Structure (SMILES) | Plant response rating (scale of 0 to 100), Foxtail, Green [1] | Plant response rating, Foxtail, Green [1] | pest or weed control at 62 g/ha [1] [%] | pest or weed control at 125 g/ha [1] [%] | Plant response rating (scale of 0 to 100), Canarygrass [2] | Plant response rating, Canarygrass ([2]; 125 g ai/ha) | Plant response rating, Canarygrass ([2]; 250 g ai/ha) | pest or weed control at 62 g/ha [2] [%] | Plant response rating (scale of 0 to 100), Windgrass [3] | Plant response rating, Windgrass [3] | pest or weed control at 62 g/ha [3] [%] | pest or weed control at 125 g/ha [3] [%] | Plant response rating (scale of 0 to 100), Blackgrass [4] | Plant response rating, Blackgrass ([4]; 125 g ai/ha) | Plant response rating, Blackgrass ([4]; 250 g ai/ha) | pest or weed control at 62 g/ha [4] [%] | Plant response rating (scale of 0 to 100), Oat, Wild (wild oat (Avena fatua)) | Plant response rating, Oat, Wild (wild oat (Avena fatua)) | pest or weed control at 62 g/ha (wild oat (Avena fatua)) [%] | pest or weed control at 125 g/ha (wild oat (Avena fatua)) [%] | also measured |
| --- | --- | --- | --- | --- | --- | --- | --- | --- | --- | --- | --- | --- | --- | --- | --- | --- | --- | --- | --- | --- | --- |
| COC(=O)c1nc(C2CC2)nc(N)c1Br [Compound 2, methyl 6-amino-5-bromo-2-cyclopropyl-4-pyrimidinecarboxylate] | 55 | 70 | 55 | 65 | 30 | 40 | 40 | 40 | 65 | 70 | 65 | 70 | 60 | 70 | 75 | 65 | 20 | 60 | 55 | 55 | Plant response rating (scale of 0 to 100), Ryegrass, Italian [5]: 35; Plant response rating, Ryegrass, Italian [5]: 60; pest or weed control at 62 g/ha [5]: 45%; pest or weed control at 125 g/ha [5]: 60%; Plant response rating (scale of 0 to 100), Wheat [6]: 20; Plant response rating, Wheat [6]: 65; plant injury at 62 g/ha [6]: 60%; plant injury at 125 g/ha [6]: 65%; Plant response rating (scale of 0 to 100), Barley [7]: 0; Plant response rating, Barley ([7]; 125 g ai/ha): 60; Plant response rating, Barley ([7]; 250 g ai/ha): 60; plant injury at 62 g/ha [7]: 35%; Plant response rating (scale of 0 to 100), Bromegrass, Downy [8]: 20; Plant response rating, Bromegrass, Downy ([8]; 125 g ai/ha): 45; Plant response rating, Bromegrass, Downy ([8]; 250 g ai/ha): 60; pest or weed control at 62 g/ha [8]: 35% |
| COC(=O)c1nc(C(C)C)nc(N)c1Br [Compound 3] | 20 | 35 | 30 | 35 | 10 | 10 | 10 | 10 | 10 | 30 | 30 | 30 | 0 | 0 | 0 | 0 | 30 | 40 | 30 | 40 | Plant response rating (scale of 0 to 100), Ryegrass, Italian [5]: 35; Plant response rating, Ryegrass, Italian [5]: 35; pest or weed control at 62 g/ha [5]: 35%; pest or weed control at 125 g/ha [5]: 35%; Plant response rating (scale of 0 to 100), Wheat [6]: 0; Plant response rating, Wheat [6]: 10; plant injury at 62 g/ha [6]: 0%; plant injury at 125 g/ha [6]: 0%; Plant response rating (scale of 0 to 100), Barley [7]: 0; Plant response rating, Barley ([7]; 125 g ai/ha): 0; Plant response rating, Barley ([7]; 250 g ai/ha): 30; plant injury at 62 g/ha [7]: 0%; Plant response rating (scale of 0 to 100), Bromegrass, Downy [8]: 20; Plant response rating, Bromegrass, Downy ([8]; 125 g ai/ha): 20; Plant response rating, Bromegrass, Downy ([8]; 250 g ai/ha): 20; pest or weed control at 62 g/ha [8]: 20% |
